US20100249058A1, “FEED ADDITIVE AND FEED” (IDEMITSU KOSAN CO., LTD., priority 2006, published 2010)

Legend:
Format in all cases: cell-based
Streptococcus suis = assay: Minimum inhibitory concentration (MIC) measurement; conditions: blood agar medium, 37° C., about 20 hours, 5% CO2
Experimental: (§1) Minimum inhibitory concentrations (MICs) of each of the bacteria shown in Table 1 were measured for the MEL and rhamnolipids by the following procedures.
(§2) The above-mentioned bacteria were precultured in a bouillon medium for sensitivity determination (NISSUI PHARMACEUTICAL CO., LTD.). The concentrations of the bacteria in the culture solutions were adjusted to about 1.0×10^5 to 10^6 CFU/ml with physiological saline, and the bacteria were inoculated into the measurement mediums. As the measurement mediums, a medium for sensitivity measurement (NISSUI PHARMACEUTICAL CO., LTD.) was used for Staphylococcus aureus, Staphylococcus epidermidis, and Bacillus subtilis, and a blood agar medium (heart infusion medium: NISSUI PHARMACEUTICAL CO., LTD., sheep sterile defibrinated blood: Kohjin Bio Co. Ltd.) was used for Streptococcus suis and Streptococcus bovis. Culture was performed at 37° C. for about 20 hours under aerobic conditions for Staphylococcus aureus, Staphylococcus epidermidis, and Bacillus subtilis or under 5% CO2 conditions for Streptococcus suis and Streptococcus bovis. After completion of culture, the MICs were measured.
(§3) The MEL crude purified product obtained in section <1> (purity 69%) was used as MEL, and the rhamnolipid crude purified product obtained in section <2> (purity 55%) was used as rhamnolipids. Meanwhile, for the purpose of comparison, MICs of sucrose ester (sucrose manodecanoate: manufactured by SIGMA-ALDRICH Japan K.K.), mannose (manufactured by Wako Pure Chemical Industries, Ltd.), and rhamnose (manufactured by SIGMA-ALDRICH Japan K.K.) were measured.

Streptococcus bovis = assay: Minimum inhibitory concentration (MIC) measurement; conditions: blood agar medium, 37° C., about 20 hours, 5% CO2
Experimental: as §1, §2, §3

Staphylococcus aureus = assay: Minimum inhibitory concentration (MIC) measurement; conditions: 37° C., about 20 hours, aerobic
Experimental: as §1, §2, §3

[1] = system: Staphylococcus epidermidis; assay: Minimum inhibitory concentration (MIC) measurement; conditions: 37° C., about 20 hours, aerobic
Experimental: as §1, §2, §3

Bacillus subtilis = assay: Minimum inhibitory concentration (MIC) measurement; conditions: 37° C., about 20 hours, aerobic
Experimental: as §1, §2, §3

[2] = system: Staphylococcus, Streptococcus, and Bacillus bacteria; assay: Evaluation of antibiotic activities (summary over the tested bacteria); conditions: result in words
Experimental: as §1
as §2, with “Culture was performed at 37° C. for about 20 hours under aerobic conditions for Staphylococcus aureus, Staphylococcus epidermidis, and Bacillus subtilis or under 5% CO2 conditions for Streptococcus suis and Streptococcus bovis.” left out
as §3

Compound: C[C@H](O)[C@H](O)[C@@H](O)[C@@H](O)C=O [Rhamnose, rhamnose]
- Minimum inhibitory concentration (MIC) (Streptococcus suis): <1600
- Minimum inhibitory concentration (MIC) (Streptococcus bovis): <1600
- Minimum inhibitory concentration (MIC) (Staphylococcus aureus): <1600
- Minimum inhibitory concentration (MIC) [1]: <1600
- Minimum inhibitory concentration (MIC) (Bacillus subtilis): <1600
- antibiotic activities [2]: no antibiotic activities

Compound: sucrose manodecanoate [Sucrose ester]
- Minimum inhibitory concentration (MIC) (Streptococcus suis): 800
- Minimum inhibitory concentration (MIC) (Streptococcus bovis): 800
- Minimum inhibitory concentration (MIC) (Staphylococcus aureus): <1600
- Minimum inhibitory concentration (MIC) [1]: <1600
- Minimum inhibitory concentration (MIC) (Bacillus subtilis): 400
